Numbered stars: 1 amine (or outer) side, 2 acyl side, 3 side chain; on linkers, the order of the positions; unused ones are H or OH. Square brackets hold non-standard residues; d marks the D form. Side chains are listed from the residue outwards. Peptide text beside a SMILES is read from it. * marks the point of attachment. C20 diacid = O=C(O)CCCCCCCCCCCCCCCCCCC(=O)*; γGlu = O=C(O)[C@H](CCC(=O)[*:2])N[*:1]; AEEA = NCCOCCOCC(=O)O; Aib = CC(C)(N)C(=O)O
Key:
[1] = target: human GLP-1 receptor (GLP-1R) (Homo sapiens, UniProt P43220); test: cAMP pharmacological functional assay in presence of casein, hGLP-1R; format: cell-based; details: HEK293 cells expressing hGLP-1R, 0.1% Casein, geometric mean; read-out: hGLP1R cAMP Rel EC50 nM (SEM, n)
human GLP-1 receptor (GLP-1R), sequence (P43220 24-463): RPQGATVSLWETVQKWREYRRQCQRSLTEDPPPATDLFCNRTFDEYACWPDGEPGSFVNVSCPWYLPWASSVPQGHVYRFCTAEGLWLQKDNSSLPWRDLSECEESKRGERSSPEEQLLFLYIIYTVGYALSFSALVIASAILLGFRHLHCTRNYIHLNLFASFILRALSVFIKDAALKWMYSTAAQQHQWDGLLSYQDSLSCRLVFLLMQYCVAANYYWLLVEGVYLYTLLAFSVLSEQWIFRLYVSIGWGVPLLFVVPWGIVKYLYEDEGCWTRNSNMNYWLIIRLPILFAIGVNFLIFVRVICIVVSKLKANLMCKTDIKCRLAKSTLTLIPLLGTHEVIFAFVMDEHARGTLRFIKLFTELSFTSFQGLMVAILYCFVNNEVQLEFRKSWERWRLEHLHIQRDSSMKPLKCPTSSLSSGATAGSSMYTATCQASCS

human GIP receptor = target: T1, human GIP receptor (Homo sapiens, UniProt P48546); test: [125I]-GIP binding (SPA), human GIP receptor; details: read-out: hGIPR Ki, nM (SEM, n)
T1 construct: expressed in transfected cells; crude membranes
T1 sequence (P48546 22-466): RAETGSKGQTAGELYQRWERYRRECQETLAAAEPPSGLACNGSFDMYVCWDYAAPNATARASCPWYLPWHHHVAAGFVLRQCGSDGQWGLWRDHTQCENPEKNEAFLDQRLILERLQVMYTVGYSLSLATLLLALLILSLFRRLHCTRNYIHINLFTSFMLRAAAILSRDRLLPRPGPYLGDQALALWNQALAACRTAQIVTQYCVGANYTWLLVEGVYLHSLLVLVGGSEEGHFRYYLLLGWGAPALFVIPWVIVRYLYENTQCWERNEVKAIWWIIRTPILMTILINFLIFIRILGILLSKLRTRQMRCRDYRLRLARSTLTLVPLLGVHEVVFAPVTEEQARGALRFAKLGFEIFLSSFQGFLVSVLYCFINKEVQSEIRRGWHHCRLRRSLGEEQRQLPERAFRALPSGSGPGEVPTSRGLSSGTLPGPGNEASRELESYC

human GLP-1R = human GLP-1R (Homo sapiens, UniProt P43220); test: [125I]-GLP-1 binding (SPA), human GLP-1 receptor; design: expressed in transfected cells; crude membranes; details: read-out: hGLP1R Ki, (nM) (SEM, n)
human GLP-1R, sequence (P43220 24-463): as the sequence (P43220 24-463) above
Outline: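 Frozen cell pellets are lysed on ice in hypotonic Tris buffer, pH 7.5, homogenized, and centrifuged to a membrane pellet resuspended at about 1 to 3 mg/mL. Binding is then measured in HEPES-based buffer at pH 7.4, and curves are fitted to give IC50 and Ki.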

[2] = target: T2, gastric inhibitory peptide receptor (GIPR) (Homo sapiens, UniProt P48546); test: cAMP pharmacological functional assay in presence of casein, hGIPR; format: cell-based; details: HEK293 cells expressing hGIPR, 0.1% Casein, geometric mean; read-out: hGIPR cAMP Rel EC50 nM (SEM, n)
T2 sequence (P48546 22-466): T1 sequence (P48546 22-466)

human Gcg receptor = target: T3, human Gcg receptor (Homo sapiens, UniProt P47871); test: [125I]-Glucagon binding (SPA), human Gcg receptor; details: read-out: hGLcgR Ki, nM (SEM, n)
T3 construct: expressed in transfected cells; crude membranes
T3 sequence (P47871 26-477): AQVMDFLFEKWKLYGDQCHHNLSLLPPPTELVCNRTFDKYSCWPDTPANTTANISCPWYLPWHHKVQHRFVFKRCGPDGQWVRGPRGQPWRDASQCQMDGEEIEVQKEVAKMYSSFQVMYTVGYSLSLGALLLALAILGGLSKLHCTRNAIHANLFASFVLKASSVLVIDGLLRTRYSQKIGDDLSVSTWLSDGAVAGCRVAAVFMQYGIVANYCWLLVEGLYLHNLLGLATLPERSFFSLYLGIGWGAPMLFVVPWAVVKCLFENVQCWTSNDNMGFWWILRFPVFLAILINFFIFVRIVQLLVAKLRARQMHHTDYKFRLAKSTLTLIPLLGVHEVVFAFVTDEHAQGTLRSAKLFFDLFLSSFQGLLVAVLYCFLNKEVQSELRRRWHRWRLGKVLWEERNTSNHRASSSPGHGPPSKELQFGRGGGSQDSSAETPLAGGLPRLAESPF
Outline: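 Crude membranes from cells expressing the receptor, prepared by hypotonic lysis in 50 mM Tris HCl pH 7.5 with protease inhibitors, homogenization and differential centrifugation, were used in a WGA-bead SPA. Binding buffer: 25 mM HEPES pH 7.4, 2.5 mM CaCl2, 1 mM MgCl2, bacitracin, Tween-20.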

SMILES | EC50 [1] [nM] | Ki (human GIP receptor) [nM] | Ki (human GLP-1R) [nM] | EC50 [2] [nM] | Ki (human Gcg receptor) [nM]
CC[C@H](C)[C@H](NC(=O)[C@H](CCCCN)NC(=O)[C@H](CC(=O)O)NC(=O)[C@H](CCCCNC(=O)COCCOCCNC(=O)COCCOCCNC(=O)CC[C@H](NC(=O)CCCCCCCCCCCCCCCCCCC(=O)O)C(=O)O)NC(=O)[C@H](CC(C)C)NC(=O)[C@@H](NC(=O)[C@H](CO)NC(=O)[C@H](Cc1ccc(O)cc1)NC(=O)[C@H](CC(=O)O)NC(=O)[C@H](CO)NC(=O)[C@@H](NC(=O)[C@H](Cc1ccccc1)NC(=O)[C@@H](NC(=O)CNC(=O)[C@H](CCC(=O)O)NC(=O)C(C)(C)NC(=O)[C@@H](N)Cc1ccc(O)cc1)[C@@H](C)O)[C@@H](C)O)[C@@H](C)CC)C(=O)N[C@@H](C)C(=O)N[C@@H](CCC(N)=O)C(=O)NC(C)(C)C(=O)N[C@@H](C)C(=O)N[C@@H](Cc1ccccc1)C(=O)N[C@H](C(=O)N[C@@H](CCC(=O)O)C(=O)N[C@@H](Cc1ccc(O)cc1)C(=O)N[C@@H](CC(C)C)C(=O)N[C@H](C(=O)N[C@@H](CCC(=O)O)C(=O)NCC(=O)NCC(=O)N1CCC[C@H]1C(=O)N[C@@H](CO)C(=O)N[C@@H](CO)C(=O)NCC(=O)N[C@@H](C)C(=O)N1CCC[C@H]1C(=O)N1CCC[C@H]1C(=O)N1CCC[C@H]1C(=O)N[C@@H](CO)C(N)=O)[C@@H](C)CC)[C@@H](C)CC [Example 27] (H-Y[Aib]EGTFTSDYSILK([AEEA-AEEA-γGlu-C20 diacid])DKIAQ[Aib]AFIEYLIEGGPSSGAPPPS-NH2) | 0.557 | 0.103 | 3.68 | 0.0789 | 315
CC[C@H](C)[C@H](NC(=O)[C@H](CCCCN)NC(=O)[C@H](CCCCNC(=O)COCCOCCNC(=O)COCCOCCNC(=O)CC[C@H](NC(=O)CCCCCCCCCCCCCCCCCCC(=O)O)C(=O)O)NC(=O)[C@H](CC(C)C)NC(=O)[C@H](CC(C)C)NC(=O)[C@@H](NC(=O)[C@H](CO)NC(=O)[C@H](Cc1ccc(O)cc1)NC(=O)[C@H](CC(=O)O)NC(=O)[C@H](CO)NC(=O)[C@@H](NC(=O)[C@H](Cc1ccccc1)NC(=O)[C@@H](NC(=O)CNC(=O)[C@H](CCC(=O)O)NC(=O)C(C)(C)NC(=O)[C@@H](N)Cc1ccc(O)cc1)[C@@H](C)O)[C@@H](C)O)[C@@H](C)CC)C(=O)N[C@@H](C)C(=O)N[C@@H](CCC(N)=O)C(=O)NC(C)(C)C(=O)N[C@@H](C)C(=O)N[C@@H](Cc1ccccc1)C(=O)N[C@H](C(=O)N[C@@H](CCC(=O)O)C(=O)N[C@@H](Cc1ccc(O)cc1)C(=O)N[C@@H](CC(C)C)C(=O)N[C@H](C(=O)N[C@@H](CCC(=O)O)C(=O)NCC(=O)NCC(=O)N1CCC[C@H]1C(=O)N[C@@H](CO)C(=O)N[C@@H](CO)C(=O)NCC(=O)N[C@@H](C)C(=O)N1CCC[C@H]1C(=O)N1CCC[C@H]1C(=O)N1CCC[C@H]1C(=O)N[C@@H](CO)C(N)=O)[C@@H](C)CC)[C@@H](C)CC [Example 28] (H-Y[Aib]EGTFTSDYSILLK([AEEA-AEEA-γGlu-C20 diacid])KIAQ[Aib]AFIEYLIEGGPSSGAPPPS-NH2) | 32.7 | 0.24 | 21.1 | 1.66 | > 902
CC[C@H](C)[C@H](NC(=O)[C@H](CCCCNC(=O)COCCOCCNC(=O)COCCOCCNC(=O)CC[C@H](NC(=O)CCCCCCCCCCCCCCCCCCC(=O)O)C(=O)O)NC(=O)[C@H](CC(=O)O)NC(=O)[C@H](CC(C)C)NC(=O)[C@H](CC(C)C)NC(=O)[C@@H](NC(=O)[C@H](CO)NC(=O)[C@H](Cc1ccc(O)cc1)NC(=O)[C@H](CC(=O)O)NC(=O)[C@H](CO)NC(=O)[C@@H](NC(=O)[C@H](Cc1ccccc1)NC(=O)[C@@H](NC(=O)CNC(=O)[C@H](CCC(=O)O)NC(=O)C(C)(C)NC(=O)[C@@H](N)Cc1ccc(O)cc1)[C@@H](C)O)[C@@H](C)O)[C@@H](C)CC)C(=O)N[C@@H](C)C(=O)N[C@@H](CCC(N)=O)C(=O)NC(C)(C)C(=O)N[C@@H](C)C(=O)N[C@@H](Cc1ccccc1)C(=O)N[C@H](C(=O)N[C@@H](CCC(=O)O)C(=O)N[C@@H](Cc1ccc(O)cc1)C(=O)N[C@@H](CC(C)C)C(=O)N[C@H](C(=O)N[C@@H](CCC(=O)O)C(=O)NCC(=O)NCC(=O)N1CCC[C@H]1C(=O)N[C@@H](CO)C(=O)N[C@@H](CO)C(=O)NCC(=O)N[C@@H](C)C(=O)N1CCC[C@H]1C(=O)N1CCC[C@H]1C(=O)N1CCC[C@H]1C(=O)N[C@@H](CO)C(N)=O)[C@@H](C)CC)[C@@H](C)CC [Example 29] (H-Y[Aib]EGTFTSDYSILLDK([AEEA-AEEA-γGlu-C20 diacid])IAQ[Aib]AFIEYLIEGGPSSGAPPPS-NH2) | 0.999 | 0.377 | 8 | 0.32 | 132
CC[C@H](C)[C@H](NC(=O)[C@H](CC(C)C)NC(=O)[C@H](Cc1ccc(O)cc1)NC(=O)[C@H](CCC(=O)O)NC(=O)[C@@H](NC(=O)[C@H](Cc1ccccc1)NC(=O)[C@H](C)NC(=O)C(C)(C)NC(=O)[C@H](CCC(N)=O)NC(=O)[C@H](CCCCNC(=O)COCCOCCNC(=O)COCCOCCNC(=O)CC[C@H](NC(=O)CCCCCCCCCCCCCCCCCCC(=O)O)C(=O)O)NC(=O)[C@@H](NC(=O)[C@H](CCCCN)NC(=O)[C@H](CC(=O)O)NC(=O)[C@H](CC(C)C)NC(=O)[C@H](CC(C)C)NC(=O)[C@@H](NC(=O)[C@H](CO)NC(=O)[C@H](Cc1ccc(O)cc1)NC(=O)[C@H](CC(=O)O)NC(=O)[C@H](CO)NC(=O)[C@@H](NC(=O)[C@H](Cc1ccccc1)NC(=O)[C@@H](NC(=O)CNC(=O)[C@H](CCC(=O)O)NC(=O)C(C)(C)NC(=O)[C@@H](N)Cc1ccc(O)cc1)[C@@H](C)O)[C@@H](C)O)[C@@H](C)CC)[C@@H](C)CC)[C@@H](C)CC)C(=O)N[C@@H](CCC(=O)O)C(=O)NCC(=O)NCC(=O)N1CCC[C@H]1C(=O)N[C@@H](CO)C(=O)N[C@@H](CO)C(=O)NCC(=O)N[C@@H](C)C(=O)N1CCC[C@H]1C(=O)N1CCC[C@H]1C(=O)N1CCC[C@H]1C(=O)N[C@@H](CO)C(N)=O [Example 30] (H-Y[Aib]EGTFTSDYSILLDKIK([AEEA-AEEA-γGlu-C20 diacid])Q[Aib]AFIEYLIEGGPSSGAPPPS-NH2) | 1.84 | 0.151 | 6.2 | 0.114 | 123
CC[C@H](C)[C@H](NC(=O)[C@H](CCCCN)NC(=O)[C@H](CC(=O)O)NC(=O)[C@H](CC(C)C)NC(=O)[C@H](CC(C)C)NC(=O)[C@@H](NC(=O)[C@H](CO)NC(=O)[C@H](Cc1ccc(O)cc1)NC(=O)[C@H](CC(=O)O)NC(=O)[C@H](CO)NC(=O)[C@@H](NC(=O)[C@H](Cc1ccccc1)NC(=O)[C@@H](NC(=O)CNC(=O)[C@H](CCC(=O)O)NC(=O)C(C)(C)NC(=O)[C@@H](N)Cc1ccc(O)cc1)[C@@H](C)O)[C@@H](C)O)[C@@H](C)CC)C(=O)N[C@@H](C)C(=O)N[C@@H](CCCCNC(=O)COCCOCCNC(=O)COCCOCCNC(=O)CC[C@H](NC(=O)CCCCCCCCCCCCCCCCCCC(=O)O)C(=O)O)C(=O)NC(C)(C)C(=O)N[C@@H](C)C(=O)N[C@@H](Cc1ccccc1)C(=O)N[C@H](C(=O)N[C@@H](CCC(=O)O)C(=O)N[C@@H](Cc1ccc(O)cc1)C(=O)N[C@@H](CC(C)C)C(=O)N[C@H](C(=O)N[C@@H](CCC(=O)O)C(=O)NCC(=O)NCC(=O)N1CCC[C@H]1C(=O)N[C@@H](CO)C(=O)N[C@@H](CO)C(=O)NCC(=O)N[C@@H](C)C(=O)N1CCC[C@H]1C(=O)N1CCC[C@H]1C(=O)N1CCC[C@H]1C(=O)N[C@@H](CO)C(N)=O)[C@@H](C)CC)[C@@H](C)CC [Example 31] (H-Y[Aib]EGTFTSDYSILLDKIAK([AEEA-AEEA-γGlu-C20 diacid])[Aib]AFIEYLIEGGPSSGAPPPS-NH2) | 0.891 | 0.0275 | 6.58 | 0.388 | 290
